{
  "source": "patent US12667614B2",
  "about": "“Bacterial microcompartment virus-like particles” (National University of Singapore, priority 2020, dated 2026)",
  "format_in_all_cases": "biochemical",
  "key": {"[1]": {"target": "T1, LacZ + shell: LacZ (E. coli beta-galactosidase), N-terminal His6, fused to S2CP(30), SEQ ID NO: 103, encapsulated in Cso-BMC (Cso-PSIIH) shell (Escherichia coli, UniProt P00722)", "T1 construct": "homotetramer", "T1 sequence (P00722 other isoform, or with tags, fused parts or gaps)": "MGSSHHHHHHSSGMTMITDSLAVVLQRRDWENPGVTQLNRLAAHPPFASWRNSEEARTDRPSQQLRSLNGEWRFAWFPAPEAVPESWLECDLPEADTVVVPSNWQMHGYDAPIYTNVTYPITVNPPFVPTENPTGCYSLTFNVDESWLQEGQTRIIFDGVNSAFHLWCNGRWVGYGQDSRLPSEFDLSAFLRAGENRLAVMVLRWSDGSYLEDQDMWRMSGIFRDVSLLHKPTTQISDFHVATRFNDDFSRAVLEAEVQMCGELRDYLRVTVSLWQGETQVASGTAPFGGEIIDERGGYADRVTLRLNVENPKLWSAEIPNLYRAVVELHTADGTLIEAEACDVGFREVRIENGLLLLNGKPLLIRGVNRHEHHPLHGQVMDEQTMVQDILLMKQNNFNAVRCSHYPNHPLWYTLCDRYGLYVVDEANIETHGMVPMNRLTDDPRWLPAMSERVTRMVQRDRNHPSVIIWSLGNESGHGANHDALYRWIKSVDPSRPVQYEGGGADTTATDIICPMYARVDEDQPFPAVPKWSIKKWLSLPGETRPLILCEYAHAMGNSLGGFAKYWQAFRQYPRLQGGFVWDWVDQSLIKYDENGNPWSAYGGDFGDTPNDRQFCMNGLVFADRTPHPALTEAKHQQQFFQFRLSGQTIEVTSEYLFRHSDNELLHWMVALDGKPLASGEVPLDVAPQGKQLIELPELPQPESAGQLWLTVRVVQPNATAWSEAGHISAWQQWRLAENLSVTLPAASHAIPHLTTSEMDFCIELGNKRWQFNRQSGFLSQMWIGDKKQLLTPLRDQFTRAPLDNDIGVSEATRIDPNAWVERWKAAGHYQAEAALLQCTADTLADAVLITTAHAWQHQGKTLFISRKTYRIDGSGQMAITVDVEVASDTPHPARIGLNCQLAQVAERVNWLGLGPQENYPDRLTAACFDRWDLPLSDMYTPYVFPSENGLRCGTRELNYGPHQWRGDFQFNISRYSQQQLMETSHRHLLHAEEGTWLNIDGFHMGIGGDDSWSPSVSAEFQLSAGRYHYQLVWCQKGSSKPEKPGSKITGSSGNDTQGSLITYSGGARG", "experiment": "Steady-state kinetics of Cso-BMC encapsulated LacZ (ONPG hydrolysis)", "procedure": "(§1) For APEX2, all reagents were made to the appropriate working concentrations using TBS-50/350 pH 8.0. Working solutions of guaiacol and H2O2, both at 10 mM, were prepared on the day of assay. The guaiacol solution was shaken vigorously at 30° C. to ensure complete dissolution before equilibration back to room temperature. The assay concentration for APEX2 was 10 nM, H2O2 1 mM and that for guaiacol ranged from 0.20 to 2.0 mM. Total reaction volume was 200 μL. Reactions were monitored by the absorbance of tetraguaiacol formed at 470 nm using a BioTek Synergy™ HT microplate reader. […] This time point was taken for initial rate, V0, measurement. Kinetic constants were obtained using non-linear least square Michaelis-Menten fitting in GraphPad Prism software.\n(§2) For steady-state kinetics of LacZ, all reagents were made to the appropriate working concentrations using TBS-50/350 pH 8.0 supplemented with 1 mM MgCl2. Working solutions of ONPG at 10 mM were prepared from a 50 mM stock solution in DMSO on the day of assay. The assay concentration for LacZ was 10 nM and that for ONPG (ortho-nitrophenyl-β-galactoside) ranged from 0.050 to 1.5 mM. Total reaction volume was 100 μL. Hydrolysis of ONPG was tracked by absorbance measurements at 405 nm.\nTo probe the capacity of the Cso-BMC for encasing enzymes of considerably different molecular sizes, an evolved pea cytosolic ascorbate peroxidase (APEX2), a 27.0 kDa monomer [Lam et al., Nature Methods 12(1): 51-54 (2015)], and E. coli beta-galactosidase (LacZ), a 466.0 kDa homotetramer, were chosen for encapsulation [Golan, et al., Biochimica et Biophysica Acta (BBA)—Bioenergetics, 1293(2): 238-242; Lam et al., Nature Methods 12(1): 51-54 (2015)]. […] Enzymes were also N-terminally tagged with the hexahistidine (Hiss) tag to facilitate downstream removal of unencapsulated enzymes that might co-purify with shells (Nichols, Kennedy, & Tullman-Ercek, 2019). Cso-PSIIH shells co-expressed with enzymes were constructed and purified. SDS-PAGE analysis and Western blotting confirmed the presence of the target enzymes in shell samples (FIG. 18A-B) and the average copy numbers of enzymes per shell were estimated by Coomassie blue densitometry (Table 8) [Hagen, A., et al., Nature Communications 9: 2881 (2018); Nichols et al., Methods in Enzymology, 617, 155-186 (2019)].\nEncapsulation of an enzyme into a protein shell is known to alter the enzyme's catalytic properties in some cases. To probe how encapsulation by the Cso-BMC might affect the catalytic efficiencies of APEX2 and LacZ, we performed steady-state kinetics of both free and encapsulated enzymes and fitted the data to the Michaelis-Menten model to obtain the turnover number (kcat), Michaelis-Menten constant (KM), and catalytic efficiency (kcat/KM) (Table 8, FIG. 19). […]"}, "[2]": {"target": "T2, Free LacZ (E. coli beta-galactosidase), N-terminal His6, fused to S2CP(30); LacZ-S2CP(30), SEQ ID NO: 103 (Escherichia coli, UniProt P00722)", "T2 construct": "homotetramer", "T2 sequence (P00722 other isoform, or with tags, fused parts or gaps)": "as above", "experiment": "Steady-state kinetics of free LacZ (ONPG hydrolysis)", "conditions": "free LacZ 10 nM; ONPG 0.050 to 1.5 mM; TBS-50/350 pH 8.0, 1 mM MgCl2; mean with standard error, triplicates", "procedure": "as §1\nas §2, with “nm. […]” for “nm.”"}, "[3]": {"target": "T3, APEX2 + shell: APEX2 (evolved pea cytosolic ascorbate peroxidase), N-terminal His6, fused to S2CP(30), SEQ ID NO: 110, encapsulated in Cso-BMC (Cso-PSIIH) shell (Glycine max, UniProt Q43758, A134P/E112K/K14D/W41F)", "T3 sequence (Q43758 with tags, fused parts or gaps A134P/E112K/K14D/W41F)": "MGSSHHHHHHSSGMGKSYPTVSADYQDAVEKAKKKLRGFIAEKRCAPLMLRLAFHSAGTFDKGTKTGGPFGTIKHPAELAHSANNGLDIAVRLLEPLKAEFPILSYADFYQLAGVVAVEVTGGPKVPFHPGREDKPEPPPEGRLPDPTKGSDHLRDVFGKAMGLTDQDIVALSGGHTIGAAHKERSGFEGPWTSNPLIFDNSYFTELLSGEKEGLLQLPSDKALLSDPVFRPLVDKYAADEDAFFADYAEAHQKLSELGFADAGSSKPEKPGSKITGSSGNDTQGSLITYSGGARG", "experiment": "Steady-state kinetics of Cso-BMC encapsulated APEX2 (guaiacol oxidation)", "conditions": "decreased to", "procedure": "as §1\nTo probe the capacity of the Cso-BMC for encasing enzymes of considerably different molecular sizes, an evolved pea cytosolic ascorbate peroxidase (APEX2), a 27.0 kDa monomer [Lam et al., Nature Methods 12(1): 51-54 (2015)], and E. coli beta-galactosidase (LacZ), a 466.0 kDa homotetramer, were chosen for encapsulation [Golan, et al., Biochimica et Biophysica Acta (BBA)—Bioenergetics, 1293(2): 238-242; Lam et al., Nature Methods 12(1): 51-54 (2015)]. […]"}, "[4]": {"conditions": "encapsulated LacZ 10 nM, ONPG 0.050 to 1.5 mM, TBS-50/350 pH 8.0, 1 mM MgCl2, mean with standard error, triplicates"}},
  "data": [
    {"smiles": "O=[N+]([O-])c1ccccc1O[C@@H]1O[C@H](CO)[C@H](O)[C@H](O)[C@H]1O", "note": "[ONPG, ortho-nitrophenyl-β-galactoside]", "values": [
      {"measurement": "kcat/KM of encapsulated LacZ compared with the free enzyme", "setting": "[1]; comparison in words with free LacZ", "value": "not significantly different from the free enzyme"},
      {"measurement": "Km", "setting": "[1]; [4]", "value": "140 ± 20", "unit": "µM"},
      {"measurement": "kcat", "setting": "[1]; [4]", "value": "200 ± 14", "unit": "s⁻¹"},
      {"measurement": "kcat/KM", "setting": "[1]; [4]", "value": "14.3 ± 2.27 × 10^5 (s^−1 · M^−1)"},
      {"measurement": "kcat", "setting": "[2]", "value": "258 ± 17", "unit": "s⁻¹"},
      {"measurement": "kcat/KM", "setting": "[2]", "value": "15.2 ± 2.05 × 10^5 (s^−1 · M^−1)"}
    ]},
    {"smiles": "COc1ccccc1O", "note": "[guaiacol]", "values": [
      {"measurement": "kcat/KM of encapsulated APEX2 relative to the free enzyme", "setting": "[3]", "value": "approximately 30%"}
    ]}
  ]
}
